One data set has as its system green peach aphids (Myzus persicae). Kind of data set: Insecticidal test for green peach aphids. It is filed as in vivo. Conditions: 500 ppm chemical solution sprinkled (2.5 mg/cm^2), wingless imagoes on leaf disc, six days, 25°C; 8640 min. As to the method:
Wet absorbent cotton was laid on each glass dish having an inner diameter of 3 cm, a Chinese olive leaf cut into a circle having a diameter of 3 cm was placed thereon, and four wingless green peach aphids (Myzus persicae) imagoes were released. After a day, a 10% by mass emulsion of the presently invented compound prepared according to the above formulation example for an emulsion was diluted with water containing a spreader to prepare a chemical solution having a concentration of 500 ppm. The chemical solution prepared was sprinkled (2.5 mg/cm^2) with a rotary tower sprinkler, and the dishes were capped and accommodated in a thermostatic room at 25°C. […] The test was carried out in duplicate.
As for `CCCOc1ccc(-c2cncc(C3CC(O)=C(C(=O)Nc4ccc(F)cc4)C(=O)N3)c2)cn1` (stereo not shown) [2-007], the death rate is listed as not below 90%.

For the compound `O=C(Nc1ccc(Cl)nn1)C1=C(O)CC(c2cnc(Cl)c(-c3ccc(Cl)nc3)c2)NC1=O` (stereo not shown) [2-046], the death rate is reported as not below 90%.

Take `CSc1cccc(NC(=O)C2=C(O)CC(c3cnc(Cl)c(-c4cccc(C)c4)c3)NC2=O)c1` (stereo not shown) [2-284]: the death rate is recorded as not below 90%.

`Cc1cccc(-c2cc(C3CC(O)=C(C(=O)Nc4cccc(S(C)(=O)=O)c4)C(=O)N3)cnc2Cl)c1` (stereo not shown) [2-285] yielded a death rate not below 90%.

As to `CN(C)c1ccc(-c2noc(C3CC(O)=C(C(=O)Nc4ccc(F)cn4)C(=O)N3)n2)cc1` (stereo not shown) [3-118], the death rate is listed as not below 90%.

For `Cc1ccc(NC(=O)C2=C(O)CC(c3nc(-c4ncccn4)no3)NC2=O)nc1` (stereo not shown) [3-167], the death rate is given as not below 90%.

Take `Cc1ccc(NC(=O)C2=C(O)CC(c3nc(-c4ccnc(F)c4)no3)NC2=O)c(C)c1` (stereo not shown) [3-266]: the death rate is given as not below 90%.

The data set is the same for the next values; noted with them: Myzus persicae, foliar, 144 h; 500 ppm chemical solution sprinkled (2.5 mg/cm^2), wingless imagoes on leaf disc, six days, 25°C; read-out: death rate.
Take `O=C(Nc1ccc(F)cc1)C1=C(O)CC(c2cncc(-c3cccc(C(F)(F)F)c3)c2)NC1=O` (stereo not shown) [2-003]: the mortality at 500 µg/mL was not below 90%.

Regarding `COC(=O)c1ccc(NC(=O)C2=C(O)CC(c3cnc(Cl)c(-c4ccc(F)cc4)c3)NC2=O)cc1` (stereo not shown) [2-292], the mortality at 500 µg/mL is not below 90%.

For `CN(C)c1ccc(-c2noc(C3CC(O)=C(C(=O)Nc4ccc(F)cc4)C(=O)N3)n2)cc1` (stereo not shown) [3-117], the mortality at 500 µg/mL is not below 90%.

Another data set relates to Trichostrongylus axei. Kind of data set: Effect test for Trichostrongylus axei. It is filed as in vivo. Also on record: concentration or dose not given beside the values. Conditions: test chemical solution B added to eggs in 96-well plate, unhatched eggs and inactive larvae counted 4 days after addition, 25°C, relative to untreated plot. As to the method:
Agar medium with 1% potato dextrose was aliquoted into 60-µl portions in a 96-well plate, and 30 µl of sterilized water containing Trichostrongylus axei eggs and a freeze-dried Escherichia coli OP50 strain (five eggs, 10 µg/10 µl Escherichia coli) was added to each well. From above, 10 µl of test chemical solution B of the presently invented compound was added to each well, and the plate was left to stand under dark conditions at 25°C.
Consider `O=C(Nc1ccc(Cl)nc1)C1=C(O)CC(c2cnc(Cl)c(-c3ccc(F)cc3)c2)NC1=O` (stereo not shown) [2-221], for which the “efficacy (%)” value is on record as not below 50%.

With `O=C(Nc1ncc(Cl)cc1F)C1=C(O)CC(c2cnc(Cl)c(-c3ccc(F)cc3)c2)NC1=O` (stereo not shown) [2-232], the “efficacy (%)” value is on record as not below 50%.

`O=C(Nc1ccc(C(F)(F)F)nc1)C1=C(O)CC(c2cnc(Cl)c(-c3ccc(F)cc3)c2)NC1=O` (stereo not shown) [2-234]: the “efficacy (%)” value was not below 50%.

`O=C(Nc1ccc(F)cn1)C1=C(O)CC(c2cnc(C(F)(F)F)c(-c3ccc(F)cc3)c2)NC1=O` (stereo not shown) [2-244]: the “efficacy (%)” value is not below 50%.

Turning to `COc1ccc(-c2cc(C3CC(O)=C(C(=O)Nc4ccc(F)cn4)C(=O)N3)cnc2C(F)(F)F)cc1` (stereo not shown) [2-245], the “efficacy (%)” value is on record as not below 50%.

Consider `O=C(Nc1ccc(F)cn1)C1=C(O)CC(c2cnc(C(F)(F)F)c(-c3cccc(F)c3)c2)NC1=O` (stereo not shown) [2-246], for which the “efficacy (%)” value was not below 50%.

In the case of `COc1cccc(-c2cc(C3CC(O)=C(C(=O)Nc4ccc(F)cn4)C(=O)N3)cnc2C(F)(F)F)c1` (stereo not shown) [2-247], the “efficacy (%)” value was not below 50%.

For the compound `Cc1ccccc1-c1cc(C2CC(O)=C(C(=O)Nc3ccc(F)cn3)C(=O)N2)cnc1C(F)(F)F` (stereo not shown) [2-248], the “efficacy (%)” value is listed as not below 50%.

As for `O=C(Nc1ccc(F)cn1)C1=C(O)CC(c2cnc(C(F)(F)F)c(-c3ccccc3F)c2)NC1=O` (stereo not shown) [2-249], the “efficacy (%)” value is not below 50%.

Take `COc1ccccc1-c1cc(C2CC(O)=C(C(=O)Nc3ccc(F)cn3)C(=O)N2)cnc1C(F)(F)F` (stereo not shown) [2-250]: the “efficacy (%)” value was not below 50%.

In the case of `O=C(Nc1ccc(F)cn1)C1=C(O)CC(c2cnc(C(F)(F)F)c(-c3cccnc3)c2)NC1=O` (stereo not shown) [2-251], the “efficacy (%)” value was not below 50%.

Take `Cc1cccc(-c2cc(C3CC(O)=C(C(=O)Nc4ccc(F)cn4)C(=O)N3)cnc2Cl)c1` (stereo not shown) [2-252]: the “efficacy (%)” value is reported as not below 50%.

With `Cc1cccc(-c2cc(C3CC(O)=C(C(=O)Nc4ccc(Cl)nc4)C(=O)N3)cnc2Cl)c1` (stereo not shown) [2-254], the “efficacy (%)” value is listed as not below 50%.

With `Cc1ccc(NC(=O)C2=C(O)CC(c3cnc(Cl)c(-c4cccc(C)c4)c3)NC2=O)nc1` (stereo not shown) [2-255], the “efficacy (%)” value is not below 50%.

In the case of `Cc1cccc(-c2cc(C3CC(O)=C(C(=O)Nc4ccn(C)n4)C(=O)N3)cnc2Cl)c1` (stereo not shown) [2-256], the “efficacy (%)” value is reported as not below 50%.

As for `Cc1cccc(-c2cc(C3CC(O)=C(C(=O)Nc4cc(C#N)ccn4)C(=O)N3)cnc2Cl)c1` (stereo not shown) [2-262], the “efficacy (%)” value was not below 50%.

In the case of `Cc1cccc(-c2cc(C3CC(O)=C(C(=O)Nc4ccc(C#N)nc4)C(=O)N3)cnc2Cl)c1` (stereo not shown) [2-266], the “efficacy (%)” value is given as not below 50%.

As for `Cc1cccc(-c2cc(C3CC(O)=C(C(=O)Nc4ncccc4C)C(=O)N3)cnc2Cl)c1` (stereo not shown) [2-272], the “efficacy (%)” value is listed as not below 50%.

On to `Cc1ccc(NC(=O)C2=C(O)CC(c3cnc(Cl)c(-c4cccc(C)c4)c3)NC2=O)nc1` (stereo not shown) [2-273], for which the “efficacy (%)” value was not below 50%.

With `O=C(Nc1cccnn1)C1=C(O)CC(c2cnc(Cl)c(-c3ccc(F)nc3)c2)NC1=O` (stereo not shown) [2-289], the “efficacy (%)” value is listed as not below 50%.

Turning to `Cn1nccc1NC(=O)C1=C(O)CC(c2cnc(Cl)c(-c3ccc(F)cc3)c2)NC1=O` (stereo not shown) [2-290], the “efficacy (%)” value is recorded as not below 50%.

In the case of `O=C(Nc1nc[nH]n1)C1=C(O)CC(c2cnc(Cl)c(-c3ccc(F)cc3)c2)NC1=O` (stereo not shown) [2-291], the “efficacy (%)” value is given as not below 50%.

As to `O=C(Nc1ccc(Cl)nc1)C1=C(O)CC(c2nc(-c3ccnc(F)c3)no2)NC1=O` (stereo not shown) [3-060], the “efficacy (%)” value is reported as not below 50%.

For the compound `Cc1cc(-c2noc(C3CC(O)=C(C(=O)Nc4ccc(F)cn4)C(=O)N3)n2)ccn1` (stereo not shown) [3-061], the “efficacy (%)” value is listed as not below 50%.

Regarding `O=C(Nc1ccc(F)cn1)C1=C(O)CC(c2nc(-c3ccncc3F)no2)NC1=O` (stereo not shown) [3-064], the “efficacy (%)” value is reported as not below 50%.

With `O=C(Nc1ccc(F)nc1)C1=C(O)CC(c2nc(-c3ccc(F)cc3)no2)NC1=O` (stereo not shown) [3-082], the “efficacy (%)” value is given as not below 50%.

Consider `O=C(Nc1ccc(F)cn1)C1=C(O)CC(c2nc(-c3cncc(F)c3)no2)NC1=O` (stereo not shown) [3-083], for which the “efficacy (%)” value was not below 50%.

On to `Cn1ccc(-c2noc(C3CC(O)=C(C(=O)Nc4ccc(F)cn4)C(=O)N3)n2)n1` (stereo not shown) [3-085], for which the “efficacy (%)” value is listed as not below 50%.

With `O=C(Nc1ccc(F)cn1)C1=C(O)CC(c2nc(-c3csc(Br)c3)no2)NC1=O` (stereo not shown) [3-086], the “efficacy (%)” value was not below 50%.

With `Cc1ccc(-c2noc(C3CC(O)=C(C(=O)Nc4ccc(F)cn4)C(=O)N3)n2)cn1` (stereo not shown) [3-087], the “efficacy (%)” value is not below 50%.

Turning to `O=C(Nc1ccc(F)cn1)C1=C(O)CC(c2nc(-c3cncs3)no2)NC1=O` (stereo not shown) [3-097], the “efficacy (%)” value is not below 50%.

Turning to `O=C(Nc1ccc(Cl)cn1)C1=C(O)CC(c2nc(-c3ccc(F)nc3)no2)NC1=O` (stereo not shown) [3-102], the “efficacy (%)” value is not below 50%.

On to `O=C(Nc1ccc(F)cn1)C1=C(O)CC(c2nc(-c3ccsc3)no2)NC1=O` (stereo not shown) [3-110], for which the “efficacy (%)” value was not below 50%.

For `Cn1nc(Cl)c(-c2noc(C3CC(O)=C(C(=O)Nc4ccc(F)cn4)C(=O)N3)n2)c1Cl` (stereo not shown) [3-114], the “efficacy (%)” value is on record as not below 50%.

As for `Cc1cc(NC(=O)C2=C(O)CC(c3nc(-c4ccnc(F)c4)no3)NC2=O)on1` (stereo not shown) [3-121], the “efficacy (%)” value is listed as not below 50%.

Consider `CON=Cc1cccc(-c2noc(C3CC(O)=C(C(=O)Nc4ccc(F)cn4)C(=O)N3)n2)c1` (stereo not shown) [3-124], for which the “efficacy (%)” value is on record as not below 50%.

For the compound `CON=C(C)c1cccc(-c2noc(C3CC(O)=C(C(=O)Nc4ccc(F)cn4)C(=O)N3)n2)c1` (stereo not shown) [3-125], the “efficacy (%)” value is not below 50%.

Turning to `Cc1ccc(NC(=O)C2=C(O)CC(c3nc(-c4ccc(F)cc4)no3)NC2=O)nc1` (stereo not shown) [3-127], the “efficacy (%)” value was not below 50%.

Regarding `Cc1ccc(NC(=O)C2=C(O)CC(c3nc(-c4cccc(F)c4)no3)NC2=O)nc1` (stereo not shown) [3-128], the “efficacy (%)” value is on record as not below 50%.

Turning to `Cc1ccc(NC(=O)C2=C(O)CC(c3nc(-c4ccccc4F)no3)NC2=O)nc1` (stereo not shown) [3-129], the “efficacy (%)” value is listed as not below 50%.

With `COc1ccc(-c2noc(C3CC(O)=C(C(=O)Nc4ccc(F)cn4)C(=O)N3)n2)cc1` (stereo not shown) [3-137], the “efficacy (%)” value is not below 50%.

`O=C(Nc1ccc(F)cn1)C1=C(O)CC(c2nc(-c3cc(F)c(F)c(F)c3)no2)NC1=O` (stereo not shown) [3-138]: the “efficacy (%)” value is not below 50%.

As to `O=C(Nc1ccc(F)cn1)C1=C(O)CC(c2nc(-c3cc(F)c(F)cc3F)no2)NC1=O` (stereo not shown) [3-139], the “efficacy (%)” value was not below 50%.

For `O=C(Nc1ccc(F)cn1)C1=C(O)CC(c2nc(-c3ccc(F)c(Cl)c3)no2)NC1=O` (stereo not shown) [3-141], the “efficacy (%)” value was not below 50%.

Regarding `O=C(Nc1ccc(F)cn1)C1=C(O)CC(c2nc(-c3ncc(C(F)(F)F)cc3Cl)no2)NC1=O` (stereo not shown) [3-148], the “efficacy (%)” value is not below 50%.

Turning to `Cn1ccc(NC(=O)C2=C(O)CC(c3nc(-c4ccc(F)cc4F)no3)NC2=O)n1` (stereo not shown) [3-154], the “efficacy (%)” value is not below 50%.

On to `Cn1nc(Cl)c(-c2noc(C3CC(O)=C(C(=O)Nc4ccccn4)C(=O)N3)n2)c1Cl` (stereo not shown) [3-170], for which the “efficacy (%)” value is reported as not below 50%.

Regarding `Cn1nc(Cl)c(-c2noc(C3CC(O)=C(C(=O)Nc4nccs4)C(=O)N3)n2)c1Cl` (stereo not shown) [3-171], the “efficacy (%)” value is reported as not below 50%.

Turning to `O=C(Nc1ccc(Cl)cn1)C1=C(O)CC(c2nc(-c3cccc(F)c3)no2)NC1=O` (stereo not shown) [3-180], the “efficacy (%)” value was not below 50%.

Regarding `O=C(Nc1cc(F)ccn1)C1=C(O)CC(c2nc(-c3ccc(F)cc3F)no2)NC1=O` (stereo not shown) [3-199], the “efficacy (%)” value is recorded as not below 50%.

`Cn1ccc(NC(=O)C2=C(O)CC(c3nc(-c4ccc(F)cc4)no3)NC2=O)n1` (stereo not shown) [3-202]: the “efficacy (%)” value was not below 50%.

Take `O=C(Nc1ncc(Cl)cc1F)C1=C(O)CC(c2nc(-c3ccc(F)nc3)no2)NC1=O` (stereo not shown) [3-271]: the “efficacy (%)” value is on record as not below 50%.

For the compound `O=C(Nc1ccc(F)c(F)c1)C1=C(O)CC(c2nc(-c3ccc(F)nc3)no2)NC1=O` (stereo not shown) [3-274], the “efficacy (%)” value is given as not below 50%.

With `Cc1cc(-c2noc(C3CC(O)=C(C(=O)Nc4cc(C(F)(F)F)n(C)n4)C(=O)N3)n2)ccn1` (stereo not shown) [3-275], the “efficacy (%)” value was not below 50%.

The values are drawn from patent EP4582413A1, “ARYLTETRAHYDROPYRIDINE COMPOUND AND PEST CONTROL AGENT” (priority 2022, dated 2024).
